Assay: Phase I safety and tolerability (TEAEs, DLTs, MTD, DRDE) in patients with advanced solid tumors
Type: in vivo, human
Procedure: This 2-part, open-label, phase I study was conducted at the MD Anderson Cancer Center in Texas, USA and the Cancer Hospital Chinese Academy of Medical Sciences in Beijing, China. […] This was followed by a dose-expansion phase, the primary objective of which was to confirm the safety and tolerability of tinengotinib at the DRDE. Secondary objectives were to characterize the pharmacokinetics and preliminary efficacy of tinengotinib.
Dose escalation was guided by an adaptive Bayesian logistic regression model using the Escalation with Overdose Control principle.[6],[7] Study data (including DLTs, grade 2 adverse events during cycle 1, and pharmacokinetic data) were reviewed by the sponsor and trial investigators at each dose level and used to guide dose-escalation decisions. MTD was based on the Bayesian model, but with consideration given to available safety and tolerability data. DRDE was based on an evaluation of all available data (safety, clinical activity, and pharmacokinetics).
After determination of the DRDE, the dose-expansion phase was opened to further characterize safety and pharmacokinetics, and to assess preliminary efficacy.
Routine safety assessments of adverse events, laboratory tests (hematology, coagulation, biochemistry, and urinalysis), vital signs, and 12-lead electrocardiograms were performed. Adverse events were graded according to the National Cancer Institute Common Terminology Criteria for Adverse Events (CTCAE), version 5.0.

[1] = dose escalation (n = 40), any grade
[2] = dose escalation (n = 40), grade ≥3
[3] = dose expansion (12 mg, n = 8), any grade
[4] = dose expansion (12 mg, n = 8), grade ≥3

## tinengotinib
Dose escalation 12 mg (n=12)
  Patients with study drug-related TEAE leading to study drug permanent discontinuation: 1 (8.3) n (%)
  Patients with study drug-related grade ≥3 TEAE: 6 (50.0) n (%)
  Patients with study drug-related treatment-emergent SAE: 0 n (%)
  Patients with treatment-emergent SAE: 5 (41.7) n (%)
Dose escalation 15 mg (n=6)
  Patients with AE: 6 (100) n (%)
  Patients with TEAE: 6 (100) n (%)
  Patients with TEAE leading to death: 0 n (%)
  Patients with TEAE leading to dose adjustment/temporary interruption: 4 (66.7) n (%)
  Patients with TEAE leading to study drug permanent discontinuation: 3 (50.0) n (%)
  Patients with grade ≥3 TEAE: 5 (83.3) n (%)
  Patients with study drug-related TEAE: 5 (83.3) n (%)
  Patients with study drug-related TEAE leading to dose adjustment/temporary interruption: 3 (50.0) n (%)
  Patients with study drug-related TEAE leading to study drug permanent discontinuation: 0 n (%)
  Patients with study drug-related grade ≥3 TEAE: 3 (50.0) n (%)
  Patients with study drug-related treatment-emergent SAE: 1 (16.7) n (%)
  Patients with treatment-emergent SAE: 4 (66.7) n (%)
[1]
  Study drug-related TEAE: 33 (82.5) No. (%)
  Study drug-related TEAE: Alanine aminotransferase increased: 4 (10.0) No. (%)
  Study drug-related TEAE: Aspartate aminotransferase increased: 4 (10.0) No. (%)
  Study drug-related TEAE: Blood thyroid-stimulating hormone increased: 4 (10.0) No. (%)
  Study drug-related TEAE: Decreased appetite: 5 (12.5) No. (%)
  Study drug-related TEAE: Diarrhea: 15 (37.5) No. (%)
  Study drug-related TEAE: Dry mouth: 5 (12.5) No. (%)
  Study drug-related TEAE: Hypertension: 19 (47.5) No. (%)
  Study drug-related TEAE: Myalgia: 5 (12.5) No. (%)
  Study drug-related TEAE: Nausea: 11 (27.5) No. (%)
  Study drug-related TEAE: Palmar-plantar erythrodysesthesia syndrome: 10 (25.0) No. (%)
  Study drug-related TEAE: Proteinuria: 6 (15.0) No. (%)
  Study drug-related TEAE: Stomatitis: 9 (22.5) No. (%)
  Study drug-related TEAE: Vomiting: 10 (25.0) No. (%)
  Study drug-related serious TEAE: 5 (12.5) No. (%)
[2]
  Study drug-related TEAE: 16 (40.0) No. (%)
  Study drug-related TEAE: Alanine aminotransferase increased: 0 No. (%)
  Study drug-related TEAE: Aspartate aminotransferase increased: 0 No. (%)
  Study drug-related TEAE: Blood thyroid-stimulating hormone increased: 0 No. (%)
  Study drug-related TEAE: Decreased appetite: 0 No. (%)
  Study drug-related TEAE: Diarrhea: 1 (2.5) No. (%)
  Study drug-related TEAE: Dry mouth: 0 No. (%)
  Study drug-related TEAE: Hypertension: 9 (22.5) No. (%)
  Study drug-related TEAE: Myalgia: 0 No. (%)
  Study drug-related TEAE: Nausea: 1 (2.5) No. (%)
  Study drug-related TEAE: Palmar-plantar erythrodysesthesia syndrome: 1 (2.5) No. (%)
  Study drug-related TEAE: Proteinuria: 0 No. (%)
  Study drug-related TEAE: Stomatitis: 2 (5.0) No. (%)
  Study drug-related TEAE: Vomiting: 0 No. (%)
  Study drug-related serious TEAE: 0 No. (%)
Dose escalation total (n=40)
  Patients with AE: 39 (97.5) n (%)
  Patients with TEAE: 39 (97.5) n (%)
  Patients with TEAE leading to death: 0 n (%)
  Patients with TEAE leading to dose adjustment/temporary interruption: 24 (60.0) n (%)
  Patients with TEAE leading to study drug permanent discontinuation: 12 (30.0) n (%)
  Patients with grade ≥3 TEAE: 26 (65.0) n (%)
  Patients with study drug-related TEAE: 33 (82.5) n (%)
  Patients with study drug-related TEAE leading to dose adjustment/temporary interruption: 18 (45.0) n (%)
  Patients with study drug-related TEAE leading to study drug permanent discontinuation: 6 (15.0) n (%)
  Patients with study drug-related grade ≥3 TEAE: 16 (40.0) n (%)
  Patients with study drug-related treatment-emergent SAE: 5 (12.5) n (%)
  Patients with treatment-emergent SAE: 18 (45.0) n (%)
Dose expansion 12 mg (n=8)
  Patients with AE: 8 (100) n (%)
  Patients with TEAE: 8 (100) n (%)
  Patients with TEAE leading to death: 0 n (%)
  Patients with TEAE leading to dose adjustment/temporary interruption: 7 (87.5) n (%)
  Patients with TEAE leading to study drug permanent discontinuation: 0 n (%)
  Patients with grade ≥3 TEAE: 5 (62.5) n (%)
  Patients with study drug-related TEAE: 8 (100) n (%)
  Patients with study drug-related TEAE leading to dose adjustment/temporary interruption: 7 (87.5) n (%)
  Patients with study drug-related TEAE leading to study drug permanent discontinuation: 0 n (%)
  Patients with study drug-related grade ≥3 TEAE: 5 (62.5) n (%)
  Patients with study drug-related treatment-emergent SAE: 3 (37.5) n (%)
  Patients with treatment-emergent SAE: 4 (50.0) n (%)
[3]
  Study drug-related TEAE: 8 (100) No. (%)
  Study drug-related TEAE: Alanine aminotransferase increased: 1 (12.5) No. (%)
  Study drug-related TEAE: Aspartate aminotransferase increased: 1 (12.5) No. (%)
  Study drug-related TEAE: Blood thyroid-stimulating hormone increased: 3 (37.5) No. (%)
  Study drug-related TEAE: Decreased appetite: 2 (25.0) No. (%)
  Study drug-related TEAE: Diarrhea: 1 (12.5) No. (%)
  Study drug-related TEAE: Dry mouth: 0 No. (%)
  Study drug-related TEAE: Hypertension: 5 (62.5) No. (%)
  Study drug-related TEAE: Myalgia: 0 No. (%)
  Study drug-related TEAE: Nausea: 0 No. (%)
  Study drug-related TEAE: Palmar-plantar erythrodysesthesia syndrome: 4 (50.0) No. (%)
  Study drug-related TEAE: Proteinuria: 0 No. (%)
  Study drug-related TEAE: Stomatitis: 5 (62.5) No. (%)
  Study drug-related TEAE: Vomiting: 0 No. (%)
[4]
  Study drug-related TEAE: 5 (62.5) No. (%)
  Study drug-related TEAE: Alanine aminotransferase increased: 0 No. (%)
  Study drug-related TEAE: Aspartate aminotransferase increased: 0 No. (%)
  Study drug-related TEAE: Blood thyroid-stimulating hormone increased: 0 No. (%)
  Study drug-related TEAE: Decreased appetite: 0 No. (%)
  Study drug-related TEAE: Diarrhea: 0 No. (%)
  Study drug-related TEAE: Dry mouth: 0 No. (%)
  Study drug-related TEAE: Hypertension: 4 (50.0) No. (%)
  Study drug-related TEAE: Myalgia: 0 No. (%)
  Study drug-related TEAE: Nausea: 0 No. (%)
  Study drug-related TEAE: Palmar-plantar erythrodysesthesia syndrome: 0 No. (%)
  Study drug-related TEAE: Proteinuria: 0 No. (%)
  Study drug-related TEAE: Stomatitis: 0 No. (%)
  Study drug-related TEAE: Vomiting: 0 No. (%)
  Study drug-related serious TEAE: 0 No. (%)
Orally once daily, 28-day cycle
  Dose recommended for dose expansion (DRDE): 12 mg
Total (n = 48), any grade
  Study drug-related TEAE: 41 (85.4) No. (%)
  Study drug-related TEAE: Alanine aminotransferase increased: 5 (10.4) No. (%)
  Study drug-related TEAE: Aspartate aminotransferase increased: 5 (10.4) No. (%)
  Study drug-related TEAE: Blood thyroid-stimulating hormone increased: 7 (14.6) No. (%)
  Study drug-related TEAE: Decreased appetite: 7 (14.6) No. (%)
  Study drug-related TEAE: Diarrhea: 16 (33.3) No. (%)
  Study drug-related TEAE: Dry mouth: 5 (10.4) No. (%)
  Study drug-related TEAE: Hypertension: 24 (50.0) No. (%)
  Study drug-related TEAE: Myalgia: 5 (10.4) No. (%)
  Study drug-related TEAE: Nausea: 11 (22.9) No. (%)
  Study drug-related TEAE: Palmar-plantar erythrodysesthesia syndrome: 14 (29.2) No. (%)
  Study drug-related TEAE: Proteinuria: 6 (12.5) No. (%)
  Study drug-related TEAE: Stomatitis: 14 (29.2) No. (%)
  Study drug-related TEAE: Vomiting: 10 (20.8) No. (%)
Total (n = 48), grade ≥3
  Study drug-related TEAE: 21 (43.8) No. (%)
  Study drug-related TEAE: Alanine aminotransferase increased: 0 No. (%)
  Study drug-related TEAE: Aspartate aminotransferase increased: 0 No. (%)
  Study drug-related TEAE: Blood thyroid-stimulating hormone increased: 0 No. (%)
  Study drug-related TEAE: Decreased appetite: 0 No. (%)
  Study drug-related TEAE: Diarrhea: 1 (2.1) No. (%)
  Study drug-related TEAE: Dry mouth: 0 No. (%)
  Study drug-related TEAE: Hypertension: 13 (27.1) No. (%)
  Study drug-related TEAE: Myalgia: 0 No. (%)
  Study drug-related TEAE: Nausea: 1 (2.1) No. (%)
  Study drug-related TEAE: Palmar-plantar erythrodysesthesia syndrome: 1 (2.1) No. (%)
  Study drug-related TEAE: Proteinuria: 0 No. (%)
  Study drug-related TEAE: Stomatitis: 2 (4.2) No. (%)
  Study drug-related TEAE: Vomiting: 0 No. (%)
  Study drug-related serious TEAE: 0 No. (%)
Total (n=48)
  Patients with AE: 47 (97.9) n (%)
  Patients with TEAE: 47 (97.9) n (%)
  Patients with TEAE leading to death: 0 n (%)
  Patients with TEAE leading to dose adjustment/temporary interruption: 31 (64.6) n (%)
  Patients with TEAE leading to study drug permanent discontinuation: 12 (25.0) n (%)
  Patients with grade ≥3 TEAE: 31 (64.6) n (%)
  Patients with study drug-related TEAE: 41 (85.4) n (%)
  Patients with study drug-related TEAE leading to dose adjustment/temporary interruption: 25 (52.1) n (%)
  Patients with study drug-related TEAE leading to study drug permanent discontinuation: 6 (12.5) n (%)
  Patients with study drug-related grade ≥3 TEAE: 21 (43.8) n (%)
  Patients with study drug-related treatment-emergent SAE: 8 (16.7) n (%)
  Patients with treatment-emergent SAE: 22 (45.8) n (%)
